Measurements as given in patent US7183319B2 (priority 2000, dated 2007).
Entries after “also recorded” stand apart in the source; their conditions may differ.

Tests used:
[1] = test system: mushroom tyrosinase; type: biochemical; conditions: for oxidation rate (Rmax) by tyrosinase: pH 7.4
[2] = bovine
[3] = in vitro; conditions: bovine, serum

Row | Structure (SMILES) | quality as tyrosinase substrate / oxidation rate in words [1] | % decomposition over time, 1 hr [2] [%] | % decomposition over time, 2 hrs [2] [%] | % decomposition over time, 3 hrs [2] [%] | also measured
1 | COC(=O)[C@@H](Cc1ccc(O)c(O)c1)NC(=O)Oc1ccc(N(CCCl)CCCl)cc1 [prodrug 16, (R)-[1′-Amino-2′-(3,4′-hydroxyphenyl)ethanonic acid methyl ester]-carbamic acid p-(bis-2-chloroethylamino) phenyl ester] | – | – | – | – | oxidation by tyrosinase within incubation period [1]: not oxidized by tryorinase; also recorded: not oxidised by tyrosinase
2 | COc1cccc2c1C(=O)c1c(O)c3c(c(O)c1C2=O)C[C@@](O)(C(C)=O)C[C@@H]3OC1CC(NC(=O)NCCc2ccc(O)cc2)C(O)C(C)O1 (stereo partly drawn) [1.1.5] | poor substrate | 0 | 0 | 0 | % decomposition over time, 4 hrs [2]: 0%; % decomposition over time, 6 hrs [2]: 0%; % decomposition over time, 12 hrs [2]: 0%; % decomposition over time, 24 hrs [2]: 0%; % decomposition over time, 48 hrs [2]: 0%
3 | O=C(NCCc1ccc(O)cc1)Oc1ccc(N(CCCl)CCCl)cc1 [1.1.1] | – | 7 | 44 | 61 | % decomposition over time, 4 hrs [2]: 74%; % decomposition over time, 6 hrs [2]: 100%; half-life [3]: ~2.5 h
4 | O=C(NCCSc1ccc(O)cc1)Oc1ccc(N(CCCl)CCCl)cc1 [prodrug 22] | – | – | – | – | oxidation rate (Rmax) by tyrosinase [1]: 7.5 nmol/min
5 | O=C(NCCc1ccc(O)c(O)c1)Oc1ccc(N(CCCl)CCCl)cc1 [prodrug 10, {2′-(3″,4″-Dihydroxyphenyl)-ethyl} carbamic acid p-(bis-2-chloroethylamino) phenyl ester] | good substrates | – | – | – | –
6 | O=C(NCCc1ccc(O)cc1)Oc1ccc(N(CCCl)CCCl)cc1 [prodrug 9, {2′-(4″-Hydroxyphenyl)ethyl} carbamic acid p-(bis-2-chloroethylamino)phenyl ster] | good substrates | – | – | – | –
7 | COC(=O)[C@H](Cc1ccc(O)cc1)NC(=S)Oc1ccc(N(CCCl)CCCl)cc1 [2.2.1] | – | 52 | 92 | 100 | half-life [3]: ~1.5 h
8 | O=C(NCCc1ccc(O)cc1)Oc1ccc(N(CCCl)CCCl)cc1 [prodrug 21, {2′-(4″-Hydroxyphenyl)ethylamine) carbamic acid p-(bis-2-chloroethylamino) phenyl ester] | – | – | – | – | oxidation rate (Rmax) by tyrosinase [1]: 7.5 nmol/min
